Measured values from patent US20060177448A1, “Inhibiting HER2 shedding with matrix metalloprotease antagonists” (Genentech, Inc., priority 2005, published 2006).

Tests used:
[1] = system: breast carcinoma cell lines; conditions: cited from earlier work
Fo5 tumors = test: GM6001 injections in FVB mice with Fo5 xenograft tumors (serum HER2 ECD ELISA, p95 HER2 Western blot); type: in vivo, mouse; conditions: 100 mg/kg intraperitoneally daily for 3 days, day four
Source text: The Fo5 and f2: 1282 lines have been previously described (Finkle et al., Clin. Cancer Res. 10: 2499-2511 (2004)). These lines were derived from primary tumors from a MMTV HER2 transgenic mouse and passaged in the mammary fat pad of FVB mice.
Fo5 tumors were transplanted into FVB mice and allowed to grow to an average size of 400-600 mm^3 prior to initiating the study. GM6001 (3-[N-hydroxycarbomyl]-[2R]-isobutylpropionyl-L-tryptophan methylamide) was obtained from Calbiochem and reconstituted in a slurry of 4% carboxymethylcellulose/0.9% PBS and administered daily by intraperitoneal injection at 100 mg/kg body weight for 3 days. […] Tumors size was measured at day 0 and at day 4. […]
Serun from mice harboring Fo5 or f2: 1282 xenograft tumors was collected by cardiac puncture and HER2 ECD levels detected using a previously described HER2 ELISA (Finkle et al. Clin. Cancer Res. 10: 2499-2511 (2004)). […] The concentration of shed HER2 in serum or in conditioned media was determined from a four-parameter fit of a standard curve using purified recombinant HER2 ECD protein (Genentech) as a standard.
Fo5 and f2:1282 tumors were resuspended in lysis buffer with protease inhibitors and homogenized using a POLYTRON TISSUEMIZER™ (PT2 100) on ice. Tumor lysates were cleared of insoluble material by centrifugation and total protein levels were determined using a BCA protein assay kit. […]

SKBR-3 cells = test: HER2 ECD ELISA of conditioned media (HER2 shedding), SKBR-3 cells; type: cell-based, human
Method: BT 474, MCF-7, and SKBR-3 cells were maintained in high-glucose DMEM:Ham's F12 (50:50) supplemented with 10% heat-inactivated FBS and 2 mM L-Glutamine. […] Cell lines were maintained at 37° C. in a humidified incubator supplied with 5% CO2. BT 474 and SKBR-3 cells were transiently transfected with constructs as described by electroporation using kit V according to the manufacturer's instructions (AMAXA™).
Serum was diluted 1:50 using assay buffer (PBS/0.5% BSA, 0.05% TWEEN® 20/10 ppm PROCLIN® 300/0.2% BGG/0.25% CHAPS/0.15 M NaCl/5mM EDTA (pH 7.4) followed by additional 1:2 serial dilutions. Shed HER2 was captured using a goat anti-HER2 polyclonal antibody (Genentech) onto NUNC® Maxisorp plates and detected using a biotin-conjugated rabbit anti-HER2 polyclonal antibody (Genentech) followed by a AMDEX™-strepavidin-horseradish peroxidase antibody (Amersham Pharmacia Biotech) following a procedure described previously (Sias et al., J. Immunol. Meth. 109:219-27 (1990)). For cell culture experiments, cells were treated as indicated and conditioned media was collected and diluted in assay buffer serially 1:2. The concentration of shed HER2 in serum or in conditioned media was determined from a four-parameter fit of a standard curve using purified recombinant HER2 ECD protein (Genentech) as a standard.
The pSIREN shRNA construct(s) or vector alone were transiently transfected into SKBR-3 and BT 474 cells using AMAXA™ kit V following manufacturer's recommendations. After 48 hours, conditioned media was collected and assayed for shed HER2 by HER2 ELISA and the cells were lysed directly on the plate using 2×Sample buffer.

## CNC(=O)[C@H](Cc1ccccc1)NC(=O)[C@H](CC(C)C)[C@H](CSc1cccs1)C(=O)NO [BB-94]
[1]
  inhibition of HER2 ECD shedding: inhibited HER2 ECD shedding

## CNC(=O)[C@H](Cc1c[nH]c2ccccc12)NC(=O)[C@@H](CC(=O)NO)CC(C)C [GM6001, 3-[N-hydroxycarbomyl]-[2R]-isobutylpropionyl-L-tryptophan methylamide]
Fo5 tumors
  amount of p95 HER2 in tumor lysates compared to control animals: significant reduction
Fo5 tumors; versus vehicle
  serum HER2 ECD levels: greater reduction
SKBR-3 cells; dose response
  inhibition of HER2 shedding (HER2 ECD ELISA): dose dependently inhibited HER2 shedding

## Timp-1: naturally occurring peptides that regulate metalloprotease activity
SKBR-3 cells; 1 μg/ml
  HER2 ECD levels in conditioned media: reduced HER2 ECD levels
